In patent US20120027720A1, “PEPTIDE CONJUGATES” (priority 2008, published 2012):
*1 amine or outer side, *2 acyl side, *3 side chain or, on linkers, in order; H or OH if unused. Where no end group is shown, it is not given here. [ ]: non-standard residue; d: D form. Pen(Acm) = L-S-acetamidomethyl-penicillamine, CC(=O)NCSC(C)(C)[C@H](N[*:1])C(=O)[*:2]; Cys(StBu) = L-S-tert-butylthio-cysteine, CC(C)(C)SSC[C@H](N[*:1])C(=O)[*:2]; Cys(Bzl) = L-S-benzyl-cysteine, O=C([C@H](CSCc1ccccc1)N[*:1])[*:2]; Phe(4-CN) = N#Cc1ccc(C[C@H](N)C(=O)O)cc1; Phe(3-Me) = Cc1cccc(C[C@H](N)C(=O)O)c1; Met(O2) = CS(=O)(=O)CC[C@H](N)C(=O)O; 2Pal = N[C@@H](Cc1ccccn1)C(=O)O; Met(O) = CS(=O)CC[C@H](N)C(=O)O; 2Thi = N[C@@H](Cc1cccs1)C(=O)O; Cha = N[C@@H](CC1CCCCC1)C(=O)O; Phg = N[C@H](C(=O)O)c1ccccc1; Tle = CC(C)(C)[C@H](N)C(=O)O; hCys = N[C@@H](CCS)C(=O)O; hSer = N[C@@H](CCO)C(=O)O; Nle = CCCC[C@H](N)C(=O)O; Pra = C#CC[C@H](N)C(=O)O; Nva = CCC[C@H](N)C(=O)O; Abu = CC[C@H](N)C(=O)O; Dap = NC[C@H](N)C(=O)O

How the values were obtained:
[1] = system: CaCo2 monolayers; test: Trans Epithelial Electric Resistance (TEER) across cell monolayer; assay type: cell-based; set-up: key to Reduced TEER: + indicates an enhancement of the permeability of the tight junctions were observed; − indicates no enhancement of permeability was observed; conditions: Caco-2 monolayer
Excerpt: (§1) Agonists of tight junctions can be identified by their ability to enhance the flux of compounds (e.g. ions, Lucifer Yellow) through a cell monolayer that comprises tight junctions; or by their ability to reduce TEER across a cell monolayer that comprises tight junctions. Treatment of CaCo2 monolayers with peptide FCIGRL (SEQ ID NO: 1) led to a 51-fold enhancement of Lucifer Yellow permeability through CaCo2 monolayers compared to vehicle alone. Treatment of CaCo2 monolayers with peptide FCIGRL led to a 16-fold decrease in TEER across CaCo2 monolayers compared to vehicle alone.
(§2) Determination of TEER and Lucifer Yellow Flux
(§3) Prepare Modified Hank's Balanced Salt Solution (MHBSS) by obtaining 1 L bottle of HBSS removing 10 ml of HBSS and replacing it with 10 ml HEPES buffer pH 7.0. Adjust pH to 7.4±0.1 using concentrated NaOH (10N).
(§4) Remove Caco-2 cells from incubator, grown on 12-well, […], polycarbonate Transwell® filters (Corning) and record passage#, date cells seeded and age in days.
(§5) Aspirate cell culture medium from both the apical (AP) and basolateral (BL) compartments, replacing with 0.5 ml and 1.5 ml of MHBSS, respectively. Incubate cells at 37° C. for 30 minutes.
Using the MilliCell®-ERS instrument (Millipore), measure and record the transepithelial electrical resistance (TEER) across each filter and record.
(§6) Aspirate solution from the apical compartment of each filter (n=3 per condition) and replace with 0.5 ml of control and test solutions containing Lucifer Yellow and test compound if appropriate.
(§7) Place all plates into incubator set at 37° C. (±0.2), 50 RPM (±5) for a total of 180 minutes.
At t=30, 60, 120 and 180 minutes, measure and record the transepithelial electrical resistance (TEER) across each filter using the MilliCell-ERS instrument.
(§8) Cells: Caco-2 cells passage 40-60 grown on Transwell® plates for 21-28 days
(§9) Culture Medium: DMEM supplemented with 10% fetal bovine serum, 1% NEAA, 1% Penn/Strep
(§10) Buffers: Hank's Balanced Salt Solution (HBSS) without calcium and magnesium
(§11) Flasks: 100×20 mm Tissue culture dish Falcon.
(§12) Plates: 12 well polycarbonate Transwell® filters; 0.3 uM pore size

[2] = system: CaCo2 monolayers; test: Epithelial flux of Lucifer Yellow through cell monolayer; assay type: cell-based; set-up: key to Enhanced LY permeability: + indicates an enhancement of the permeability of the tight junctions were observed; − indicates no enhancement of permeability was observed; conditions: Lucifer Yellow flux, Caco-2 monolayer
Excerpt: as §1, §2, §3, §4, §5, §6, §7
At t=60, 120 and 180 minutes remove 100 μl from each basolateral compartment and place it in a 96-well plate for Lucifer Yellow analysis, replace with 100 μl of MHBSS.
Make a Lucifer Yellow standard curve with the following dilutions (7500 μM, 3750 μM, 750 μM, 375 μM, 75 μM, 37.5 μM, 7.5 μM, 3.75 μM, 0.75 μM) and pipette […] of each into a 96-well plate except for the first three standards mentioned above which require a 1:10 dilutions prior to transferring to the 96-well plate.
Harvest the remaining start solutions and what is left in each apical compartment into 1.5 ml vials. Freeze at −20° C. for future analysis.
Analyze each 96-well plate in a Tecan Spectra Fluor Plus using Magellan at 485 and 535 nm.
as §8, §9, §10, §11, §12

Substance	Reduced TEER [1]	Enhanced LY permeability [2]
129 (FQIGRL; also: peptide conjugate) [compound 129]	−	−
130 (FEIGRL; also: peptide conjugate) [compound 130]	−	−
132 (FNIGRL; also: peptide conjugate) [compound 132]	+	−
133 (FYIGRL; also: peptide conjugate) [compound 133]	−	−
134 (FLIGRL; also: peptide conjugate) [compound 134]	−	−
135 (FVIGRL; also: peptide conjugate) [compound 135]	+	+
136 (FIIGRL; also: peptide conjugate) [compound 136]	+	+
138 (LRGILF-NH2; also: peptide conjugate) [compound 138]	+	+
139 (FLIGR-NH2; also: peptide conjugate) [compound 139]	−	−
140 (H-F[2Thi]IGRL-OH; SMILES CC[C@H](C)[C@H](NC(=O)[C@H](Cc1cccs1)NC(=O)[C@@H](N)Cc1ccccc1)C(=O)NCC(=O)N[C@@H](CCCNC(=N)N)C(=O)N[C@@H](CC(C)C)C(=O)O) [compound 140]	−	−
142 (H-F[Abu]IGRL-OH; SMILES CC[C@H](NC(=O)[C@@H](N)Cc1ccccc1)C(=O)N[C@H](C(=O)NCC(=O)N[C@@H](CCCNC(=N)N)C(=O)N[C@@H](CC(C)C)C(=O)O)[C@@H](C)CC) [compound 142]	−	−
143 (H-F[Met(O)]IGRL-OH; not fully specified; also: peptide conjugate, Xaa: 'may be' L-methionine-sulfoxide) [compound 143]	−	−
144 (H-F[Met(O2)]IGRL-OH; not fully specified; also: peptide conjugate, Xaa: 'may be' L-methionine-sulfone) [compound 144]	−	−
145 (H-F[dC]IGRL-OH; also: peptide conjugate) [compound 145]	+	+
146 (H-F[Nva]IGRL-OH; not fully specified; printed as H-Phe-Nva-Ile-Gly-Arg-Leu-OH; also: peptide conjugate, Xaa: 'may be' norvaline) [compound 146]	−	−
147 (H-F[Nle]IGRL-OH; not fully specified; printed as H-Phe-Nle-Ile-Gly-Arg-Leu-OH; also: peptide conjugate, Xaa: 'may be' L-norleucine) [compound 147]	−	−
148 (Ac-F[hSer]IGRA; also: peptide conjugate) [compound 148]	+	+
150 (Ac-F[hSer]IGRF; also: peptide conjugate) [compound 150]	+	+
151 (F[hSer]IGRF; also: peptide conjugate, Xaa: 'may be' homoserine) [compound 151]	−	−
152 (F[Cys(Bzl)]IGRL; also: peptide conjugate, Xaa: 'may be' L-S-benzyl-cysteine) [compound 152]	−	−
153 (F[Cys(StBu)]IGRL; also: peptide conjugate, Xaa: 'may be' L-S-tert-butylthio-cysteine) [compound 153]	−	−

Substance	Reduced TEER [1]	Enhanced LY permeability [2]
154 (F[Phg]IGRL-OH; not fully specified; printed as Phe-Phg-Ile-Gly-Arg-Leu-OH; also: peptide conjugate, Xaa: 'may be' L-phenylglycine) [compound 154]	+	+
155 (F[dV]IGRL-OH; also: peptide conjugate) [compound 155]	−	−
156 (F[Cha]IGRL-OH; also: peptide conjugate) [compound 156]	−	−
157 (F[Tle]IGRL-OH; not fully specified; also: peptide conjugate, Xaa: 'may be' L-tert-butylglycine) [compound 157]	+	+
159 (F[L‑(R,S)‑3,4‑cis‑methanoproline]IGRL; not fully specified; also: peptide conjugate) [compound 159]	+	−
160 (F[Dap]IGRL; not fully specified; printed as Phe-Dpr-Ile-Gly-Arg-Leu; also: peptide conjugate) [compound 160]	+	+
161 (F[Pen(Acm)]IGRL; also: peptide conjugate) [compound 161]	+	+
162 (F[hCys]IGRL; also: peptide conjugate, Xaa: 'may be' homocysteine) [compound 162]	+	+
163 (F[2Pal]IGRL; also: peptide conjugate, Xaa: 'may be' L-beta-(2-pyridyl)-alanine) [compound 163]	−	−
164 (FL[dI]GRL-NH2; also: peptide conjugate) [compound 164]	−	−
165 (F[dL]IGRL-NH2; also: peptide conjugate) [compound 165]	−	−
166 (LRG[dI]LF-NH2; also: peptide conjugate) [compound 166]	−	−
168 (F[L‑4,5‑dehydro‑leucine]IGRL; not fully specified; also: peptide conjugate) [compound 168]	−	+
169 (Ac-F[hSer]IGR-NH2; also: peptide conjugate) [compound 169]	−	−
170 (F[hSer][dI]GR-NH2; also: peptide conjugate) [compound 170]	−	−
171 (Ac-F[hSer]IGRL-NH2; also: peptide conjugate) [compound 171]	−	−
172 (F[hSer][dI]GRL; not fully specified; also: peptide conjugate, Xaa: 'may be' homoserine) [compound 172]	−	−
173 ([Phe(4-CN)]FIGRL; also: peptide conjugate, Xaa: 'may be' L-4-cyano-phenylalanine) [compound 173]	−	−
174 ([Phe(3-Me)]FIGRL; not fully specified; also: peptide conjugate) [compound 174]	−	−
175 (F[L‑beta‑cyclopropyl‑alanine]IGRL; also: peptide conjugate) [compound 175]	−	−
176 (F[Pra]IGR-NH2; N-terminus assumed; SMILES C#CC[C@H](NC(=O)[C@@H](N)Cc1ccccc1)C(=O)N[C@H](C(=O)NCC(=O)N[C@@H](CCCNC(=N)N)C(N)=O)[C@@H](C)CC) [compound 176]	−	−
